Source: patent US12280059B2, “Acyl-CoA synthetase 4 (ACSL4) inhibitory compound” (CONSEJO NACIONAL DE INVESTIGACIONES CIENTÍFICAS Y TÉCNICAS …, priority 2019, dated 2025)

What was measured:
MDA-MB-231 cells [1] = test: Cell proliferation inhibition in breast cancer cell line, BrdU incorporation assay; type: cell-based; details: Homo sapiens, 96 h incubation
Text: In this experiment, ACSL4 inhibition was studied through proliferation inhibition of MDA-MB-231 cells. Human breast cancer cell line MDA-MB-231 was generously provided by Dr. Vasilios Papadoupoulus (Research Institute of the McGill University Health Centre, Montreal, Canada) and obtained from the Lombardi Comprehensive Cancer Center (Georgetown University Medical Center, Washington D.C. USA), validated by ATCC Cell Line Authentication Service as 100% matching to ATCC cell line HTB-26 (MDA-MB-231).
The medium was then changed to serum-free medium.
After 24 h, the cells were switched to 10% FBS-supplemented D-MEM medium and incubated with i) ACSL4 inhibitor A, ii) ACSL4 inhibitor B or iii) rosiglitazone for 96 h.

PC-3 cells = test: Cell proliferation inhibition in prostate cancer cell line, BrdU incorporation assay; type: cell-based; details: Homo sapiens, 96 h incubation
Protocol: ACSL4 inhibition was also assessed through proliferation inhibition in the Pc-3 cell line. PC-3 human prostate cancer cell line was generously provided by Dr. Susana Nowicky and validated by ATCC Cell Line Authentication Service as 100% matching to ATCC cell line CRL-1435 (PC-3).
The medium was then changed to serum-free medium. After 24 h, the cells were switched to 10% FBS-supplemented D-MEM medium and incubated with i) ACSL4 inhibitor A, ii) ACSL4 inhibitor B or iii) rosiglitazone for 96 h.

MDA-MB-231 cells [2] = test: Migration assay (wound healing); type: cell-based, human; details: for concentration at which differences in wound area were evident: wound healing, 12 h after injury
Protocol: Cellular migration was measured by the wound healing assay. Cells (7×10^5 cells per well) were seeded in six-well plates. Cells were kept in complete (10% FBS) medium. Cell monolayer was wounded with a plastic tip across the monolayer cells. Wound closures were photographed by a phase contrast microscopy (40×) in the time point 4, 8 and 12 h after scraping. The width of the wound was determined with the Image Pro-Plus program.
For the wound healing assay, cells were incubated with either vehicle (control), the compound of the invention (inhibitor A) (50 μM) and Rosiglitazone (200 μM). At the specified time points, the distance between the wound edges was measured using Image-Pro Plus software. Results are shown in FIG. 4A-D. Data represent the mean±SD of three independent experiments.

MA-10 Leydig cells = test: Steroidogenesis assay, progesterone production in cAMP-stimulated MA-10 Leydig cells; type: cell-based, mouse
Protocol: (§1) In the present example, ACSL4 inhibitor effects on steroid production were tested by stimulating MA 10 Leydig and Y1 adrenal cells with cAMP (0.5 mM) for 1 hour and assessing progesterone levels. MA-10 mouse Leydig tumor cells were generously provided by Dr. Mario Ascoli (University of Iowa, Iowa City, Iowa) and cultured in Waymouth MB/752 medium supplemented with 15% horse serum and antibiotics at 37° C. and 5% CO2 as previously described. The culture medium was replaced with serum-free Waymouth medium before experiments.

Y1 adrenal cells = test: Steroidogenesis assay, progesterone production in cAMP-stimulated Y1 adrenal cells; type: cell-based, mouse; details: cAMP 0.5 mM, 1 hour
Protocol: as §1
Murine Y1 adrenocortical tumor cells were generously provided by Dr B Schimmer (University of Toronto, Toronto, Canada). Methods for the culture of Y1 mouse adrenal tumor cells (American Type Culture Collection, Rockville, MD, USA) have been published elsewhere (Schimmer 1979). Cells were maintained at 37 C in growth medium (HAM F10) containing fetal bovine (2·5%) and horse (12·5%) sera.

ACSL4 [3] = biological target: T1, ACSL4 (Homo sapiens, UniProt O60488); test: 3H-arachidonic acid incorporation into MDA-MB-231 cells (ACSL4 activity); type: cell-based; details: serum stimulated
T1 construct: evaluated in MDA-MB-231 cells, in which ACSL4 activity plays a key role in tumor biology; endogenous in cells; host or cells: MDA-MB-231
T1 sequence (O60488 whole entry): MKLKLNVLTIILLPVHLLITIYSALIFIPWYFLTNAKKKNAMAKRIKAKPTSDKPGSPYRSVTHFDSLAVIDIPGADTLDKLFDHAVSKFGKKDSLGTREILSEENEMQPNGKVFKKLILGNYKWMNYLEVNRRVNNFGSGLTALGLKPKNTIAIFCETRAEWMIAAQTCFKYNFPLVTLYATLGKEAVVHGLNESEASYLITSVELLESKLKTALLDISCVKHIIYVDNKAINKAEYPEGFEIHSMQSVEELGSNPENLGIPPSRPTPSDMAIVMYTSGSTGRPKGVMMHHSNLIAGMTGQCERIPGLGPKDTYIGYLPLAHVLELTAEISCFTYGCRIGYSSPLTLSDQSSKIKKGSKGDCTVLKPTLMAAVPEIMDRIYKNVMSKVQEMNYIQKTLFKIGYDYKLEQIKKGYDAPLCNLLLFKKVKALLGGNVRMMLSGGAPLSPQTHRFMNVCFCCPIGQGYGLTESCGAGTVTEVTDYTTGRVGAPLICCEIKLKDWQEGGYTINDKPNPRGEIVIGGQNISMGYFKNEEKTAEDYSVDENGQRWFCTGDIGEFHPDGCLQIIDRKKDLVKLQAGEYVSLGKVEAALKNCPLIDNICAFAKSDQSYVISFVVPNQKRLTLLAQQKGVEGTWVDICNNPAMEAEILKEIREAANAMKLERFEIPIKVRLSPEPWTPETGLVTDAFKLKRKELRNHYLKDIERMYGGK
Protocol: The effects of the ACSL4 inhibitor of the invention were evaluated in MDA-MB-231 cells, in which ACSL4 activity plays a key role in tumor biology.
(§2) ACSL4 activity was determined by measuring the transformation of arachidonic acid (AA) into enzyme product arachidonoyl-CoA (AA CoA), through ^3H-AA incorporation expressed as CPM/10^6 cells×10^−3 with results showing significant ACSL4 inhibition and a consequent significant reduction in AA CoA levels.
ACSL4 activity was stimulated with serum in tumoral cells.

ACSL4 [4] = biological target: T2, ACSL4 (Mus musculus, UniProt Q9QUJ7); test: 3H-arachidonic acid incorporation into MA-10 Leydig cells (ACSL4 activity); type: cell-based; details: cAMP stimulated
T2 construct: evaluated in MA-10 Leydig cells, in which ACSL4 activity plays a key role in steroids synthesis; endogenous in cells; host or cells: MA-10 mouse Leydig tumor cells
T2 sequence (Q9QUJ7 whole entry): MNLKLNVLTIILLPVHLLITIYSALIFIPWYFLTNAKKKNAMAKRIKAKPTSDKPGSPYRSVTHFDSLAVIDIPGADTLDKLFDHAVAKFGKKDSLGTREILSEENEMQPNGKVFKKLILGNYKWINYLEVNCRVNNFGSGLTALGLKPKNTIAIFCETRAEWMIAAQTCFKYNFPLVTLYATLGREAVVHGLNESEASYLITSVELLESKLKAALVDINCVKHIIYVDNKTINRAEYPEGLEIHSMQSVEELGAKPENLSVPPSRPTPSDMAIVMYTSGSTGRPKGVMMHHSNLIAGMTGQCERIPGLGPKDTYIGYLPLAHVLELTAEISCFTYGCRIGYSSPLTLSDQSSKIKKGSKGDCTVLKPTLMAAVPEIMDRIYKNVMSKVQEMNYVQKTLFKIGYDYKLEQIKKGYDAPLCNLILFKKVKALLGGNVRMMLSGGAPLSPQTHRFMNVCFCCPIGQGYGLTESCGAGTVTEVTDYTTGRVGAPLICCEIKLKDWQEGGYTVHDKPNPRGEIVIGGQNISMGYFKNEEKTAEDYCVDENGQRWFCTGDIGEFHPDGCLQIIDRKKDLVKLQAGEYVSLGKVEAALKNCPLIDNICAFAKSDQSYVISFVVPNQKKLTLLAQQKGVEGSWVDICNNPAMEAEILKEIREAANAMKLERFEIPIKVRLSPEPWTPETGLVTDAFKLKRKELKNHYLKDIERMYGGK
Protocol: The effects of the ACSL4 inhibitor of the invention were evaluated in MA-10 Leydig cells, in which ACSL4 activity plays a key role in steroids synthesis.
as §2
ACSL4 activity was stimulated with cAMP.

MDA-MB231 cells = test: Tumor growth in chick embryo chorioallantoic membrane (CAM) assay; type: in vivo; details: 100 μM, in ovo, Kruskal-Wallis p<0.0001
Protocol: In this experiment, the in vivo CAM assay platform of IPATIMUP was used to test the effect of inhibitor A to inhibit tumor growth in vivo. The CAMP is a preclinical in vivo model for drug screening.
Chicken eggs in the early phase of breeding are between in vitro and in vivo systems and provide a vascular test environment not only to study angiogenesis but also to study tumorigenesis. Since the lymphoid system is not fully developed until late stages of incubation, the chick embryo serves as a naturally immunodeficient host capable of sustaining grafted tissues and cells without species-specific restrictions.
As previously described, breast cancer MDA-MB231 cell line was used as a cell model to assess tumor cell growth. The effects of the compound were compared to those of the vehicle (DMEM).
The test compound, at the 10 μM and 100 μM, were inoculated together with 0.5×10^6 MDA-MB231 cells into a total of 53 eggs (distributed in two independent experiments), at embryonic development day (EDD) 10. The effects of the compound A were compared to those of the vehicle (DMEM).
Xenografted cells/tumors were treated in ovo on EDD12 and the experiment ended at EDD 14. At the endpoint, CAMs were fixed (with paraformaldehyde), excised from the embryo and photographed ex ovo.
The pictures were used to determine the number of neo vessels growing radially towards the inoculation site. […]

steroid synthesis = test: Steroidogenesis in male mice stimulated with hCG; type: in vivo, BALB/c mice
Protocol: Thirty-day-old male BALB/c mice were treated with inhibitor A (10-100 μM) i.p at a dose of 50 ul/mice. After 3 hours the animal received a single s.c injection of human Chorionic Gonadotrophin (300 U/mice). After 3 hours the animal were sacrificed and assessed for testosterone, pregnenolone and progesterone levels FIG. 13 A, corticosterone FIG. 13 B and steroids in Pc-3 cell FIG. 13 C.

Solubility = type: physicochemical; details: compared with compound B

IC50 (MDA-MB-231 cells [1]) | IC50 (PC-3 cells) | solubility (Solubility) | SMILES | concentration at which differences in wound area were evident (MDA-MB-231 cells [2]) | inhibition of progesterone synthesis (MA-10 Leydig cells) | release of progesterone (MA-10 Leydig cells; 10 μM, control 3.26 ng/ml) | inhibition of cell migration (wound healing) (MDA-MB-231 cells [2]; MDA-MB-231 cells, 50 μM) | minimal concentration significantly inhibiting steroid synthesis (MA-10 Leydig cells; cAMP 0.5 mM, 1 hour, progesterone) | minimal concentration significantly inhibiting steroid synthesis (Y1 adrenal cells) | concentrations for inhibiting ACSL4 activity (3H-AA incorporation) (ACSL4 [3]) | concentrations for inhibiting ACSL4 activity (3H-AA incorporation) (ACSL4 [4]) | tumor growth (tumor area) versus vehicle (MDA-MB231 cells) | minimal concentration significantly inhibiting steroid synthesis (steroid synthesis; i.p. 50 ul/mice, hCG stimulation (Example 12)) | dose at which there was already response in inhibiting steroidogenesis (steroid synthesis; in vivo experiment in mice, FIG. 13 A)
180 µM | 100 µM |  | CN(CCOc1ccc(CC2SC(=O)NC2=O)cc1)c1ccccn1 (centres unmarked) [Rosiglitazone, reference compound] | 200 µM |  |  |  |  |  |  |  |  |  | 
 |  |  | CCC/C=C/C/C=C/C=C/C=N/NN=O [Triacsin C] |  | failed to inhibit progesterone synthesis | 46.5 ng/mL |  |  |  |  |  |  |  | 
23 µM | 27 µM | higher than the solubility of compound B | CC(=O)NC1=Nc2nc3ccccc3n2C(c2cn(-c3ccccc3)nc2-c2ccc(C)o2)N1 (centres unmarked) [inhibitor A, N-(4-(3-(5-methylfuran-2-yl)-1-phenyl-1H-pyrazol-4-yl)-3,4-dihydrobenzo[4,5]imidazo[1,2-a][1,3,5]triazin-2-yl)acetamide] | 50 µM |  |  | succeeded in inhibiting the migration | 5 µM | 5 µM | lower than those required for rosiglitazone | lower than those required for rosiglitazone | Significant statistical differences | 25 µM | 10 µM
45 µM | 48 µM |  | Cc1ccc(-c2nn(-c3ccccc3)cc2C2NC(N)=Nc3nc4ccccc4n32)o1 (centres unmarked) [inhibitor B, 4-(3-(5-methylfuran-2-yl)-1-phenyl-1H-pyrazol-4-yl)-3,4-dihydrobenzo[4,5]imidazo[1,2-a][1,3,5]triazin-2-amine] | 100 µM |  |  |  |  |  |  |  |  |  | 
